{
  "source": "patent US11478478B2",
  "about": "“2,3-disubstituted 1-acyl-4-amino-1,2,3,4-tetrahydroquinoline derivatives and their use as bromodomain inhibitors” (GLAXOSMITHKLINE INTELLECTUAL PROPERTY (NO.2) LIMITED, priority 2013, dated 2022)",
  "data": [
    {"molecular_target": "T1, BRD4 BD2 (Homo sapiens, UniProt O60885, Y97A)", "T1 construct": "BRD4 (1-477) (Y97A) and (Y390A); made in house; host or cells: E. coli (pET15b vector)", "experiment": "TR-FRET binding assay, BRD4 BD2 (BD1-mutated protein)", "settings": "read-out: pIC50 in the BRD4 BD2 assay (converted)", "summary_of_the_method": "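Displacement of Alexa Fluor647-labelled bromodomain ligand (at Kd) from 10 nM His-tagged BRD4 (1-477, Y97A) read by Eu-anti-His TR-FRET (665/615 ratio) in pH 7.4 HEPES buffer, 0.5% DMSO. Compound preincubated 30 min at rt, detection ≥30 min. pIC50 derived from four-parameter fit after normalisation to controls.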", "units": {"IC50": "µM"}, "values": [
      {"smiles": "CC(=O)OC[C@@H]1[C@@H](Nc2ccccc2)c2ccccc2N(C(C)=O)[C@H]1C1CC1", "note": "(racemic) [Example 591, rac-((2S,3R,4R)-1-acetyl-2-cyclopropyl-4-(phenylamino)-1,2,3,4-tetrahydroquinolin-3-yl)methyl acetate]", "IC50": "1 to 100"},
      {"smiles": "CC(=O)N1c2ccccc2[C@H](Nc2ccccc2)[C@@H](CO)[C@@H]1C1CC1", "note": "(racemic) [Example 592, rac-1-((2S,3R,4R)-2-cyclopropyl-3-(hydroxymethyl)-4-(phenylamino)-3,4-dihydroquinolin-1(2H)-yl)ethanone]", "IC50": "1 to 100"},
      {"smiles": "COc1cc2c(cc1C(N)=O)[C@H](Nc1nccc(C)n1)[C@@H](C)[C@H](C1CC1)N2C(C)=O", "note": "(racemic) [Example 593, rac-(2S,3R,4R)-1-acetyl-2-cyclopropyl-7-methoxy-3-methyl-4-((4-methylpyrimidin-2-yl)amino)-1,2,3,4-tetrahydroquinoline-6-carboxamide]", "IC50": "1 to 100"},
      {"smiles": "CC(=O)N1c2ccncc2C(Nc2nccc(C)n2)C(C)C1C1CC1", "note": "(racemic) [Example 598b, rac-1-((2,3,4 unknown)-2-cyclopropyl-3-methyl-4-((4-methylpyrimidin-2-yl)amino)-3,4-dihydro-1,6-naphthyridin-1(2H)-yl)ethanone]", "IC50": "1 to 100"},
      {"smiles": "CC[C@H]1[C@H](C)[C@@H](Nc2cccc(C)n2)c2ccccc2N1C(C)=O", "note": "(single isomer, unassigned) [Example 25a]", "IC50": 0.1},
      {"smiles": "CC[C@@H]1[C@@H](C)[C@H](Nc2cccc(C)n2)c2ccccc2N1C(C)=O", "note": "(single isomer, unassigned) [Example 25b]", "IC50": "1 to 100"},
      {"smiles": "CC(=O)N1c2ccccc2[C@H](Nc2ccccc2)[C@@H](C)[C@@H]1C1CC1", "note": "(single isomer, unassigned) [Example 27a]", "IC50": 0.1},
      {"smiles": "CC(=O)N1c2ccccc2[C@@H](Nc2ccccc2)[C@H](C)[C@H]1C1CC1", "note": "(single isomer, unassigned) [Example 27b]", "IC50": "1 to 100"},
      {"smiles": "CC(=O)N1c2ccccc2[C@H](Nc2cccc(C)n2)[C@@H](C)[C@@H]1C1CC1", "note": "(single isomer, unassigned) [Example 29a]", "IC50": 0.1},
      {"smiles": "CC(=O)N1c2ccccc2[C@@H](Nc2cccc(C)n2)[C@H](C)[C@H]1C1CC1", "note": "(single isomer, unassigned) [Example 29b]", "IC50": "1 to 100"},
      {"smiles": "CC(=O)N1c2ccc(N3CCOCC3)cc2[C@H](Nc2ccccc2)[C@@H](C)[C@@H]1C", "note": "(single isomer, unassigned) [Example 71a]", "IC50": "1 to 100"},
      {"smiles": "CC(=O)N1c2ccc(N3CCOCC3)cc2[C@@H](Nc2ccccc2)[C@H](C)[C@H]1C", "note": "(single isomer, unassigned) [Example 71b]", "IC50": 0.1},
      {"smiles": "CC(=O)N1c2ccc(N3CCOCC3)cc2[C@@H](Nc2ccccc2)[C@H](C)[C@H]1C1CC1", "note": "(single isomer, unassigned) [Example 91b]", "IC50": "1 to 100"},
      {"smiles": "CC(=O)N1c2cccnc2[C@H](Nc2ccccc2)[C@@H](C)[C@@H]1C1CC1", "note": "(single isomer, unassigned) [Example 102b]", "IC50": "1 to 100"},
      {"smiles": "CC(=O)N1c2cccnc2[C@@H](Nc2cccc(C)n2)[C@H](C)[C@H]1C1CC1", "note": "(single isomer, unassigned) [Example 114b]", "IC50": "1 to 100"},
      {"smiles": "COCCn1cc(-c2ccc3c(c2)[C@H](Nc2cccc(C)n2)[C@@H](C)[C@H](C2CC2)N3C(C)=O)cn1", "note": "(single isomer, unassigned) [Example 136a]", "IC50": 0.1},
      {"smiles": "COCCn1cc(-c2ccc3c(c2)[C@H](Nc2cnc(C)cn2)[C@@H](C)[C@H](C2CC2)N3C(C)=O)cn1", "note": "(single isomer, unassigned) [Example 138a]", "IC50": 0.1},
      {"smiles": "COCCn1cc(-c2ccc3c(c2)[C@@H](Nc2cnc(C)cn2)[C@H](C)[C@@H](C2CC2)N3C(C)=O)cn1", "note": "(single isomer, unassigned) [Example 138b]", "IC50": "1 to 100"},
      {"smiles": "CC[C@H]1[C@H](C)[C@@H](Nc2cccc(C)n2)c2cc(F)ccc2N1C(C)=O", "note": "(single isomer, unassigned) [Example 146a]", "IC50": 0.1},
      {"smiles": "CC[C@@H]1[C@@H](C)[C@H](Nc2cccc(C)n2)c2cc(F)ccc2N1C(C)=O", "note": "(single isomer, unassigned) [Example 146b]", "IC50": "1 to 100"},
      {"smiles": "CC[C@H]1[C@H](C)[C@@H](Nc2ccc(C#N)cc2)c2cc(F)ccc2N1C(C)=O", "note": "(single isomer, unassigned) [Example 147a]", "IC50": "1 to 100"},
      {"smiles": "CC[C@@H]1[C@@H](C)[C@H](Nc2ccc(C#N)cc2)c2cc(F)ccc2N1C(C)=O", "note": "(single isomer, unassigned) [Example 147b]", "IC50": 0.1},
      {"smiles": "CC(=O)N1c2ccc(C3=CCNCC3)cc2[C@H](Nc2cccc(C)n2)[C@@H](C)[C@@H]1C1CC1", "note": "(single isomer, unassigned) [Example 189a]", "IC50": 0.1},
      {"smiles": "CC(=O)N1c2ccc(C3=CCNCC3)cc2[C@@H](Nc2cccc(C)n2)[C@H](C)[C@H]1C1CC1", "note": "(single isomer, unassigned) [Example 189b]", "IC50": "1 to 100"},
      {"smiles": "CNC(=O)c1ccc2c(c1)[C@H](Nc1cccc(C)n1)[C@@H](C)[C@H](C1CC1)N2C(C)=O", "note": "(single isomer, unassigned) [Example 239a]", "IC50": 0.1},
      {"smiles": "CNC(=O)c1ccc2c(c1)[C@@H](Nc1cccc(C)n1)[C@H](C)[C@@H](C1CC1)N2C(C)=O", "note": "(single isomer, unassigned) [Example 239b]", "IC50": "1 to 100"},
      {"smiles": "CC(=O)N1c2ccc(C(N)=O)cc2[C@@H](Nc2nccc(C)n2)[C@H](C)[C@H]1C1CC1", "note": "(single isomer, unassigned) [Example 397]", "IC50": "1 to 100"},
      {"smiles": "CNC(=O)c1ccc(N[C@@H]2c3cc(C4=CCOCC4)ccc3N(C(C)=O)[C@H](C3CC3)[C@H]2C)cc1", "note": "(single isomer, unassigned) [Example 551a]", "IC50": "1 to 100"},
      {"smiles": "CC(=O)N1c2ccc(N3CCOCC3)cc2[C@H](Nc2ccccc2)[C@@H](C)[C@@H]1C1CC1", "note": "[Example 91a, 1-((2S,3R,4R)-2-cyclopropyyl-3-methyl-6-morpholino-4-(phenylamino)-3,4-dihydroquinolin-1(2H)-yl)ethanone]", "IC50": 0.1},
      {"smiles": "CC(=O)N1c2ccc(N3CCOCC3)cc2[C@H](Nc2ccc(C#N)cc2)[C@@H](C)[C@@H]1C", "note": "[Example 197, 4-(((2S,3R,4R)-1-acetyl-2,3-dimethyl-6-morpholino-1,2,3,4-tetrahydroquinolin-4-yl)amino)benzonitrile]", "IC50": 0.1},
      {"smiles": "CC(=O)N1c2ccc(N3CCNCC3)cc2[C@H](Nc2ccc(C#N)cc2)[C@@H](C)[C@@H]1C", "note": "[Example 214, 4-(((2S,3R,4R)-1-acetyl-2,3-dimethyl-6-(piperazin-1-yl)-1,2,3,4-tetrahydroquinolin-4-yl)amino)benzonitrile]", "IC50": 0.1},
      {"smiles": "CCNC(=O)c1ccc2c(c1)[C@H](Nc1cccc(C)n1)[C@@H](C)[C@H](C1CC1)N2C(C)=O", "note": "[Example 248, (2S,3R,4R)-1-acetyl-2-cyclopropyyl-N-ethyl-3-methyl-4-((6-methylpyridin-2-yl)amino)-1,2,3,4-tetrahydroquinoline-6-carboxamide]", "IC50": 0.1},
      {"smiles": "COCCNC(=O)c1ccc2c(c1)[C@H](Nc1cccc(C)n1)[C@@H](C)[C@H](C1CC1)N2C(C)=O", "note": "[Example 256, (2S,3R,4R)-1-acetyl-2-cyclopropyl-N-(2-methoxyethyl)-3-methyl-4-((6-methylpyridin-2-yl)amino)-1,2,3,4-tetrahydroquinoline-6-carboxamide]", "IC50": 0.1}
    ]}
  ]
}
